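Results reflect a 48-hour exposure of cells in 96-well plates to compound at five concentrations. GI50 = concentration required for 50% inhibition of growth. TGI marks complete inhibition of growth.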
Assays:
Assay in all cases: growth of human tumour cells (NCI), 48 h
SF-295 CNS = system: SF-295 CNS
HT29 colon = system: HT29 colon
UACC-62 melanoma = system: UACC-62 melanoma
A549 NSCLC = system: A549 NSCLC
NCI-H23 lung = system: NCI-H23 lung
COLO 205 colon = system: COLO 205 colon
SNB-75 CNS = system: SNB-75 CNS
SR leukemia = system: SR leukemia
A498 renal = system: A498 renal
MOLT-4 leukemia = system: MOLT-4 leukemia
HOP-62 NSCLC = system: HOP-62 NSCLC
HS 578T breast = system: HS 578T breast
LOX IMVI melanoma = system: LOX IMVI melanoma
SK-OV-3 ovarian = system: SK-OV-3 ovarian
NCI-H226 lung = system: NCI-H226 lung
ACHN renal = system: ACHN renal
SF-268 CNS = system: SF-268 CNS
EKVX NSCLC = system: EKVX NSCLC
MCF7 breast = system: MCF7 breast
UACC-257 melanoma = system: UACC-257 melanoma
T-47D breast = system: T-47D breast
OVCAR-3 ovarian = system: OVCAR-3 ovarian
786-0 renal = system: 786-0 renal
CCRF-CEM leukemia = system: CCRF-CEM leukemia
U251 CNS = system: U251 CNS
TK-10 renal = system: TK-10 renal
RXF 393 renal = system: RXF 393 renal
HCT-15 colon = system: HCT-15 colon
MDA-MB-435 = system: MDA-MB-435
MALME-3M melanoma = system: MALME-3M melanoma
CAKI-1 renal = system: CAKI-1 renal
DU-145 prostate = system: DU-145 prostate
SF-539 CNS = system: SF-539 CNS
OVCAR-4 ovarian = system: OVCAR-4 ovarian
HOP-92 NSCLC = system: HOP-92 NSCLC
NCI/ADR-RES ovarian = system: NCI/ADR-RES ovarian
HL-60(TB) leukemia = system: HL-60(TB) leukemia
NCI-H460 lung = system: NCI-H460 lung
NCI-H522 lung = system: NCI-H522 lung
SK-MEL-2 melanoma = system: SK-MEL-2 melanoma
SK-MEL-5 melanoma = system: SK-MEL-5 melanoma
IGROV1 ovarian = system: IGROV1 ovarian
MDA-MB-231 breast = system: MDA-MB-231 breast
K-562 leukemia = system: K-562 leukemia
RPMI-8226 leukemia = system: RPMI-8226 leukemia
SW-620 colon = system: SW-620 colon
HCT-116 colon = system: HCT-116 colon
OVCAR-5 ovarian = system: OVCAR-5 ovarian
M14 melanoma = system: M14 melanoma
SNB-19 CNS = system: SNB-19 CNS
KM12 colon = system: KM12 colon
PC-3 prostate = system: PC-3 prostate
SK-MEL-28 melanoma = system: SK-MEL-28 melanoma
UO-31 renal = system: UO-31 renal
HCC-2998 colon = system: HCC-2998 colon
SN12C renal = system: SN12C renal
OVCAR-8 ovarian = system: OVCAR-8 ovarian
BT-549 breast = system: BT-549 breast

SMILES: CC(=C(c1ccc(OCCN2CCCC2)cc1)c1ccc(OCCN2CCCC2)cc1)c1ccc(Cl)cc1
- GI50 (SF-295 CNS): 2690 nM
- TGI (SF-295 CNS): 5140 nM
- GI50 (HT29 colon): 660 nM
- TGI (HT29 colon): 2520 nM
- GI50 (UACC-62 melanoma): 2850 nM
- TGI (UACC-62 melanoma): 5520 nM
- GI50 (A549 NSCLC): 2740 nM
- TGI (A549 NSCLC): 5740 nM
- GI50 (NCI-H23 lung): 2690 nM
- TGI (NCI-H23 lung): 5200 nM
- GI50 (COLO 205 colon): 2730 nM
- TGI (COLO 205 colon): 6140 nM
- GI50 (SNB-75 CNS): 6850 nM
- TGI (SNB-75 CNS): 16700 nM
- GI50 (SR leukemia): 745 nM
- TGI (SR leukemia): 16700 nM
- GI50 (A498 renal): 2450 nM
- TGI (A498 renal): 4850 nM
- GI50 (MOLT-4 leukemia): 1380 nM
- TGI (MOLT-4 leukemia): 4390 nM
- GI50 (HOP-62 NSCLC): 2930 nM
- TGI (HOP-62 NSCLC): 5970 nM
- GI50 (HS 578T breast): 2680 nM
- TGI (HS 578T breast): 6590 nM
- GI50 (LOX IMVI melanoma): 516 nM
- TGI (LOX IMVI melanoma): 2620 nM
- GI50 (SK-OV-3 ovarian): 2900 nM
- TGI (SK-OV-3 ovarian): 5490 nM
- GI50 (NCI-H226 lung): 3040 nM
- TGI (NCI-H226 lung): 6180 nM
- GI50 (ACHN renal): 2530 nM
- TGI (ACHN renal): 4780 nM
- GI50 (SF-268 CNS): 2700 nM
- TGI (SF-268 CNS): 5460 nM
- GI50 (EKVX NSCLC): 2270 nM
- TGI (EKVX NSCLC): 4650 nM
- GI50 (MCF7 breast): 409 nM
- TGI (MCF7 breast): 2730 nM
- GI50 (UACC-257 melanoma): 2970 nM
- TGI (UACC-257 melanoma): 5850 nM
- GI50 (T-47D breast): 1940 nM
- TGI (T-47D breast): 5020 nM
- GI50 (OVCAR-3 ovarian): 2640 nM
- TGI (OVCAR-3 ovarian): 5300 nM
- GI50 (786-0 renal): 2110 nM
- TGI (786-0 renal): 4520 nM
- GI50 (CCRF-CEM leukemia): 1400 nM
- TGI (CCRF-CEM leukemia): 4720 nM
- GI50 (U251 CNS): 2200 nM
- TGI (U251 CNS): 4880 nM
- GI50 (TK-10 renal): 2580 nM
- TGI (TK-10 renal): 5210 nM
- GI50 (RXF 393 renal): 2010 nM
- TGI (RXF 393 renal): 4200 nM
- GI50 (HCT-15 colon): 655 nM
- TGI (HCT-15 colon): 2530 nM
- GI50 (MDA-MB-435): 2620 nM
- TGI (MDA-MB-435): 5030 nM
- GI50 (MALME-3M melanoma): 2630 nM
- TGI (MALME-3M melanoma): 5180 nM
- GI50 (CAKI-1 renal): 2500 nM
- TGI (CAKI-1 renal): 4850 nM
- GI50 (DU-145 prostate): 2600 nM
- TGI (DU-145 prostate): 5140 nM
- GI50 (SF-539 CNS): 2340 nM
- TGI (SF-539 CNS): 4670 nM
- GI50 (OVCAR-4 ovarian): 2650 nM
- TGI (OVCAR-4 ovarian): 5390 nM
- GI50 (HOP-92 NSCLC): 1490 nM
- TGI (HOP-92 NSCLC): 3920 nM
- GI50 (NCI/ADR-RES ovarian): 2810 nM
- TGI (NCI/ADR-RES ovarian): 5720 nM
- GI50 (HL-60(TB) leukemia): 3010 nM
- TGI (HL-60(TB) leukemia): 6340 nM
- GI50 (NCI-H460 lung): 2960 nM
- TGI (NCI-H460 lung): 5580 nM
- GI50 (NCI-H522 lung): 2960 nM
- TGI (NCI-H522 lung): 5990 nM
- GI50 (SK-MEL-2 melanoma): 3100 nM
- TGI (SK-MEL-2 melanoma): 6220 nM
- GI50 (SK-MEL-5 melanoma): 2740 nM
- TGI (SK-MEL-5 melanoma): 5210 nM
- GI50 (IGROV1 ovarian): 2560 nM
- TGI (IGROV1 ovarian): 5110 nM
- GI50 (MDA-MB-231 breast): 2370 nM
- TGI (MDA-MB-231 breast): 4950 nM
- GI50 (K-562 leukemia): 498 nM
- TGI (K-562 leukemia): 1750 nM
- GI50 (RPMI-8226 leukemia): 2570 nM
- TGI (RPMI-8226 leukemia): 6740 nM
- GI50 (SW-620 colon): 2160 nM
- TGI (SW-620 colon): 4540 nM
- GI50 (HCT-116 colon): 1150 nM
- TGI (HCT-116 colon): 3580 nM
- GI50 (OVCAR-5 ovarian): 2560 nM
- TGI (OVCAR-5 ovarian): 4900 nM
- GI50 (M14 melanoma): 2130 nM
- TGI (M14 melanoma): 4590 nM
- GI50 (SNB-19 CNS): 2790 nM
- TGI (SNB-19 CNS): 5300 nM
- GI50 (KM12 colon): 2660 nM
- TGI (KM12 colon): 5630 nM
- GI50 (PC-3 prostate): 2290 nM
- TGI (PC-3 prostate): 4790 nM
- GI50 (SK-MEL-28 melanoma): 2640 nM
- TGI (SK-MEL-28 melanoma): 5100 nM
- GI50 (UO-31 renal): 2240 nM
- TGI (UO-31 renal): 4460 nM
- GI50 (HCC-2998 colon): 2700 nM
- TGI (HCC-2998 colon): 5320 nM
- GI50 (SN12C renal): 2500 nM
- TGI (SN12C renal): 4980 nM
- GI50 (OVCAR-8 ovarian): 3250 nM
- TGI (OVCAR-8 ovarian): 7160 nM
- GI50 (BT-549 breast): 2630 nM
- TGI (BT-549 breast): 5120 nM
